From patent US20240082208A1 (priority 2021, published 2024)

Key:
[1] = tested on: dengue virus; test: In vitro dengue virus infection of Vero cells, viral RNA titer by qRT-PCR; type: cell-based; conditions: 40 μM, 48 hours after infection
Procedure: In order to evaluate the antiviral effect of irosustat in vitro, an additional experiment was performed in which Vero cells were infected with dengue virus. 16 hours before viral infection, cells were pre-treated with irosustat at a concentration of 0 μM, 20 μM or 40 μM, and 1 hour thereafter, the medium was replaced with a cell culture medium containing the drug. 48 hours after infection with the virus, the viral RNA titer of dengue virus in the cell culture medium was measured through qRT-PCR, and the results are shown in FIG. 3.

[2] = tested on: severe acute respiratory syndrome virus (SARS; SARS-CoV-2); design: species or system K18-ACE2 TG mice; conditions: mouse, in vivo

Question: For `NS(=O)(=O)Oc1ccc2c3c(c(=O)oc2c1)CCCCC3` [irosustat, (6-oxo-8,9,10,11-tetrahydro-7H-cyclohepta[c]chromen-3-yl)sulfamate], which “decrease of virus titer” value [1] is on record?
Answer: ≥ 50%

Question: And the “viral titer in the lung tissue, lower than vehicle” value [2]?
Answer: about 77%
